Experiments:
Aromatase [1] = target: T1, Aromatase (Homo sapiens, UniProt P11511); assay: Inactivation of human placental aromatase assessed as residual activity at 7.5 uM after 12 mins in presence of 0.5 mM L-cysteine; conditions: 0.2 h
T1 sequence (P11511 whole entry): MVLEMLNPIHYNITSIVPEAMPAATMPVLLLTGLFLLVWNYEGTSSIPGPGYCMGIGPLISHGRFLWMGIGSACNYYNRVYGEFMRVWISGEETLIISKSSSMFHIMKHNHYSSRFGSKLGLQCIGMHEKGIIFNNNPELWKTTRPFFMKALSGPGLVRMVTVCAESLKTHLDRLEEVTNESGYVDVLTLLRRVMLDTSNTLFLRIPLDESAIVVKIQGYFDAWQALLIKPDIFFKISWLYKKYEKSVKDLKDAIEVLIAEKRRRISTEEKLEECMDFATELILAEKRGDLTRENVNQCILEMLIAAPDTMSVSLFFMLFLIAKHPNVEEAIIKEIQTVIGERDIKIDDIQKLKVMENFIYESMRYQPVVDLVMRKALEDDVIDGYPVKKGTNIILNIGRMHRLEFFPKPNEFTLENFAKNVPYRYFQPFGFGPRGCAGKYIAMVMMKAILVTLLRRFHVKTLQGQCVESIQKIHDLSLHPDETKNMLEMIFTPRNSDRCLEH

Aromatase [2] = target: T1, Aromatase; assay: Competitive inhibition of human placental aromatase by Lineweaver-Burke plot analysis
Aromatase [3] = target: T1, Aromatase; assay: Inhibition of human placental aromatase assessed as conversion of [1-beta-3H]androstenedione to [1beta-3H]estrone after 20 mins by liquid scintillation counting
Aromatase [4] = target: T1, Aromatase; assay: Inhibition of human placental aromatase assessed as conversion of [1-beta-3H]androstenedione to […] at 100 uM after 20 mins by liquid scintillation counting; conditions: for inhibition (INH): 100 µM
Aromatase [5] = target: T1, Aromatase; assay: Inhibition of human placental aromatase assessed as conversion of [1-beta-3H]androstenedione to […] at 30 uM after 20 mins by liquid scintillation counting

Row | Compound | IC50 (Aromatase [3]) | further results
1 | Cc1nc2c(cc1C#N)C(Nc1ccc(Cl)cc1)Oc1ccc([N+](=O)[O-])cc1-2 (centres undefined) | 678 nM | Activity (Aromatase [1]): Active; Ki (Aromatase [2]): 385 nM
2 | CC/C(=C1\C=CC(=O)S1)C(CC)c1ccc(OC(C)=O)cc1 (centres undefined) | 15500 nM | –
3 | CCOC(=O)C1=C(C)C2C=C(c3cccs3)CC(c3ccc(Cl)cc3)=C2OC1=O (centres undefined) | – | inhibition at 100 µM (Aromatase [4]): 26%
4 | CCn1cc(C(=O)O)c(=O)c2ccc(-c3c[nH]nc3C)nc21 | – | inhibition (INH) (Aromatase [4]): Not Active
5 | C=C1C(=O)O[C@H]2C[C@@H](C)[C@@H]3CC(=O)OC[C@@]3(C)C[C@H]12 | – | inhibition (INH) (Aromatase [4]): Not Active
6 | CC1C2=CC(=O)CCC2(C)C2CCC3(C)C(=O)CCC3C12 (centres undefined) | 274 nM | Ki (Aromatase [2]): 266 nM
7 | C[C@H]1C2=CC(=O)CCC(C)(O2)[C@H]2CC[C@]3(C)C(=O)CC[C@H]3[C@H]12 (some centres undefined) | 9800 nM | –
8 | CCCCSC(=O)[C@@]1(C)CC[C@H]2[C@@H](CC=C3C[C@@H](OC(C)=O)CC[C@@]32C)[C@@H]1CC#N | – | inhibition at 30 µM (Aromatase [5]): 21%
9 | CC1C(O)CC23COC(=O)C2=CCCC3C1(C)CCC1=CC(=O)OC1 (centres undefined) | 126000 nM | –
10 | CCCC(=O)Oc1cc(OC(=O)CCC)c2c(C)cc(=O)oc2c1 | 176000 nM | –
11 | C[C@]12CCC(=O)C(O)=C1CC[C@@H]1[C@@H]2CC[C@]2(C)C(=O)CC[C@@H]12 [FORMESTANE] | 92 nM | –

— ChEMBL document CHEMBL1154072, “An efficient steroid pharmacophore-based strategy to identify new aromatase inhibitors” (Eur J Med Chem, 2009)
